Laboratory results published in patent US9534221B2, “Targeting the steroidogenic pathway for treating and/or preventing allergic diseases” (National Jewish Health, priority 2013, dated 2017).

Legend:
CD8+ T cells = experiment: Flow cytometric intracellular staining of IFN-γ and IL-13 in CD8+ T cells; format: cell-based, mouse; conditions: no SIINFEKL
Cyp11a1 = molecular target: T1, Cyp11a1 (Mus musculus, UniProt Q9QZ82); experiment: Pregnenolone levels in serum of peanut sensitized and challenged mice (Cyp11a1 enzymatic activity); format: in vivo; conditions: AMG 20 mg/kg, PE/PE mice; PE/PE without AMG 4.69±0.92, PBS/PE 1.99±0.11
T1 construct: mononuclear cells (MNCs) were processed from the spleens of OT-1 mice; endogenous in cells
T1 sequence (Q9QZ82 37-526): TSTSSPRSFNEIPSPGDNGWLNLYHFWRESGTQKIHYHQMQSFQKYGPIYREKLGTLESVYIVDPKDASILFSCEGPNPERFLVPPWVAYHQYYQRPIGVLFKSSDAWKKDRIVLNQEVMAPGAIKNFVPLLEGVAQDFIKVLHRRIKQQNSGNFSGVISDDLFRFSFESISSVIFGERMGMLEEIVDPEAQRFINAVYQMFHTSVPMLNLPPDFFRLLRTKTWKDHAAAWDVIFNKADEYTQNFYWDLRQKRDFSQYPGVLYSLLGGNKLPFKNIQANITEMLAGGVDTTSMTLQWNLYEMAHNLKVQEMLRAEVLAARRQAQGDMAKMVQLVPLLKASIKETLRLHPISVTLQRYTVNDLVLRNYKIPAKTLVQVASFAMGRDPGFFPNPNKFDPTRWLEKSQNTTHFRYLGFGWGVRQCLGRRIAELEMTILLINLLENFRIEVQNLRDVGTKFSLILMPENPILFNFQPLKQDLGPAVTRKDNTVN
Description: AMG was dissolved in 1 M hydrogen chloride and diluted with saline for in vivo studies or diluted with RPMI medium for in vitro study. The final concentration of 1 M hydrogen chloride was less than 1% and 0.05% for in vivo and in vitro, respectively. PE sensitized and challenged mice received different doses (5, 10, 20 mg/kg) of the Cyp11a1 enzyme inhibitor (PE/PE/AMG) by means of gavage using a 22-gauge feeding needle (Fisher Scientific) twice a day during the peanut challenge phase. Controls included PE sensitized and challenged but vehicle (saline) treated (PE/PE/vehicle), or sham sensitized but PE challenged and vehicle-treated (PBS/PE/vehicle) mice.
Pregnenolone levels in serum and cell culture supernatants were measured by ELISA (ALPCO Diagnostics, Salem, N.H.), as described by the manufacturer.

[1] = test system: OVA-sensitized CD8-deficient mice; experiment: Secondary allergen challenge model with adoptive transfer of CD8+ T cells; format: in vivo, mouse
Description: The experimental protocol for sensitization and challenge to OVA was as described previously (Oka, H. et al. Cell. Immunol. 206, 7-15 (2000); Sundrud, M. S, and Nolan, M. A. Curr. Opin. Immunol. 22, 286-292 (2010)), with some modification. CD8-deficient mice were sensitized with 20 μg of OVA (Calbiochem, La Jolla, Calif.) emulsified in 2.25 mg of alum (AlumImuject; Pierce, Rockford, Ill.) on days 0 and 14 by intraperitoneal injection. Mice were challenged with 0.2% OVA for 20 minutes on days 21, 22, and 23 using an ultrasonic nebulizer (model NE-U07; Omron Healthcare, Kyoto, J P). […] Two hours after transfer, mice were challenged (secondary) with 1% OVA for 20 minutes. Airway function was measured and samples were collected on day 38. Airway function was assessed as described previously (Oka, H. et al. Cell. Immunol. 206, 7-15 (2000); Sundrud, M. S, and Nolan, M. A. Curr. Opin. Immunol. 22, 286-292 (2010)) by measuring changes in airway resistance (RL) in response to increasing doses of inhaled methacholine (Sigma, St. Louis, Mo.). Data were presented as percentage change from the baseline RL values after saline inhalation. […] After measurement of AHR, lungs were lavaged via the tracheal tube with 1 ml of HBSS. The supernatants were collected and IL-4, IL-5, and IL-13 (eBioscience, San Diego, Calif.) levels were measured by ELISA as described previously. Total leukocyte numbers were counted and differentiated as described previously (Oka, H. et al. Cell. Immunol. 206, 7-15 (2000); Sundrud, M. S, and Nolan, M. A. Curr. Opin. Immunol. 22, 286-292 (2010)). Mouse lungs were isolated and fixed in 10% formalin, then embedded in paraffin and cut into 5-μm thick tissue sections. Sections were stained with periodic acid-Schiff (PAS) and mucus-containing cells were quantitated as previously described (Oka, H. et al. Cell. Immunol. 206, 7-15 (2000); Sundrud, M. S, and Nolan, M. A. Curr. Opin. Immunol. 22, 286-292 (2010)). For some experiments, lung tissue expression of Cyp11a1 was identified by immunohistochemistry staining using anti-human Cyp11a1 antibody.

[2] = recipients of AMG-treated vs untreated CD8+ T cells
[3] = recipients of CD8+ T cells pretreated with AMG vs untreated cells

CCC1(c2ccc(N)cc2)CCC(=O)NC1=O (stereo not shown) [AMG, aminoglutethimide]
IFN-γ single positive cells (CD8+ T cells; IL-2+AMG (500 μM)): 0.2 +/− 0.1% | IFN-γ+IL13+ double positive cells (CD8+ T cells; IL-2+AMG (500 μM)): 0% | IL-13 single positive cells (CD8+ T cells; IL-2+AMG (500 μM)): 0.4 +/− 0.2% | IFN-γ+IL13+ double positive cells (CD8+ T cells; IL-2+IL-4+AMG (500 μM)): 0.1% | Pregnenolone levels in serum (Cyp11a1): 2.98 ± 0.60 ng/mL | Cyp11a1-positive cells in the lung ([1]; recipients of AMG-treated cells): few Cyp11a1-positive cells | IL-4 level in BAL fluid [1, 2]: significantly lower | IL-5 level in BAL fluid [1, 2]: significantly lower | IL-13 level in BAL fluid [1, 2]: significantly lower | Lung inflammation (histology) [1, 3]: less inflammation | Numbers of PAS+ mucus-containing goblet cells in lung [1, 3]: significantly decreased | AHR (changes in airway resistance RL) ([1]; transfer of 5×10^6 CD8+ T cells differentiated in IL-2 with AMG (500 μM)): failed to restore AHR or airway inflammation | Airway inflammation (cell composition in BAL fluid) ([1]; transfer of CD8+ T cells differentiated in IL-2 with AMG (500 μM)): failed to restore AHR or airway inflammation
